Literature values, collected in patent US20140274796A1, “Methods, Systems, and Compositions for In Vitro Concentric Cell Culture Analog Systems” (University of Central Florida Research Foundation, Inc., priority 2013, published 2014).

How the values were obtained:
[1] = in vivo
[2] = literature statement [Scollon 2009]
[3] = system: sodium-channels of squid axon-membranes; details: literature statement [Lund 1982]

Structure (SMILES) | toxicity relative to trans isomers [1] | metabolic rate relative to trans isoform [2] | activity of stereospecific isomer [3]
CC1(C)C(C=C(Cl)Cl)C1C(=O)OCc1cccc(Oc2ccccc2)c1 (single isomer, unassigned) [cis isomers, permethrin] | about ten times more toxic than the trans isomers | much slower | –
CC1(C)C(C=C(Cl)Cl)C1C(=O)OCc1cccc(Oc2ccccc2)c1 (stereo not drawn) [1R-cis-, permethrin] | – | – | active
CC1(C)C(C=C(Cl)Cl)C1C(=O)OCc1cccc(Oc2ccccc2)c1 (stereo not drawn) [1R-trans-, permethrin] | – | – | active
CC1(C)C(C=C(Cl)Cl)C1C(=O)OCc1cccc(Oc2ccccc2)c1 (stereo not drawn) [1S-cis-, permethrin] | – | – | not
CC1(C)C(C=C(Cl)Cl)C1C(=O)OCc1cccc(Oc2ccccc2)c1 (stereo not drawn) [1S-trans-, permethrin] | – | – | not
